Key:
[1] = molecular target: human LSD1 (Homo sapiens (Human), UniProt O60341); test: Evaluation of enzyme activity: LSD1 fluorescence coupling enzyme assay (HRP/Amplex Red); format: biochemical; details: human LSD1, histone H3(1-21)K4me2 peptide 10 μM, 30 min pre-incubation
Method: The purpose of this test is to test the in vitro inhibitory activities of the compounds against LSD1. The enzyme used in this experiment was human LSD1, and the standard substrate was histone H3(1-21)K4me2 peptide (10 μM). HCI-2509 (SP2509) was used as reference compound, and the fluorescence coupling enzyme assay was employed. The production of FAD-dependent H2O2 as a result of demethylase activity of LSD1 was measured by coupling with HRP and Amplex Red. Compounds as well as control compound HCl-2509 were tested in 10-dose IC50 mode with a 3-fold serial dilution in duplicate starting at 10 μm. All compounds were pre-incubated 30 mins with enzyme before added substrate to start reaction. Fluorescence measurement: Ex/Em=535/590 by EnVision.
The test compound's inhibitory activities against LSD11 was classified as: + for IC50≤50 nM; ++ for IC50>50 nM and ≤100 nM; +++ for IC50>100 nM and ≤500 nM, and the results are shown in Table 1.

[2] = system: H1417 cells; test: Cell proliferation inhibitory activity on H1417 cells (CellTiter-Glo, 10 days); format: cell-based, human; details: Homo sapiens; for IC50: NCI-H1417, 240 h, H1417 cells, 10 days incubation; for Emax: NCI-H1417, H1417 cells, highest percentage inhibition of cell viability, read-out: Maximum inhibition percentage (%)
Method: Experimental purposes: To test the proliferation inhibitory activities of the test compounds on H1417 cells.
Experimental materials: RPMI 1640 medium, fetal bovine serum, Promega CellTiter-Glo reagent. The H1417 cell line purchased from ATCC. Envision Multi-Label Analyzer (PerkinElmer).
Experimental method: H1417 cells were seeded in a black 384-well plate, 1000 cells per well in […] of cell suspension. The test compounds were diluted 3-fold with Epmotion to the 10th concentration i.e, the compounds were diluted from 10 mmol to […], and a double duplicate well experiment was set. 198 μL medium was added to the middle plate, according to the corresponding position, 2 μL gradient diluted compounds were added to the middle plate. The mixture was mixed evenly and transferred 20 μL per well to the cell plates. The cell plates were incubated in a carbon dioxide incubator for 10 days. 25 μL of Promega CellTiter-Glo reagent per well was added to the cell plate and the mixture was incubated for 10 minutes at room temperature to stabilize the luminescence signal. Readings were performed by PerkinElmer Envision multi-label analyzer.
Data analysis: The original data was converted to the inhibition rate by the equation (Max-Ratio)/(Max-Min)*100%, and the value of IC50 can be obtained by curve fitting with four parameters. (Model 205 in XLFIT5, iDBS)
The growth inhibitory activities of the test compounds on H1417 cells were classified as + for IC50≤100 nM; ++ for IC50>100 nM and ≤500 nM; +++ for IC50>500 nM and ≤1000 nM; the highest percentage inhibition of cell viability was classified as: […]; 90%>B≥70%; 70%>C≥50%.

| SMILES | IC50 [1] [nM] | IC50 [2] [nM] | Emax [2] [%] |
| --- | --- | --- | --- |
| COC(=O)c1ccc(CN2CCC(c3nc(C4(CN[C@H]5CC5c5ccccc5)CC4)no3)CC2)cc1 (single isomer, unassigned) [Example 165] | 100 to 500 | – | – |
| CCN(CC)CC1(CN[C@H]2CC2c2ccccc2)CC1 (stereo partly shown) [Example 7] | 100 to 500 | – | – |
| Fc1ccccc1CNCC1(CN[C@H]2CC2c2ccccc2)CC1 (stereo partly shown) [Example 10] | ≤ 50 | – | – |
| c1ccc([C@H]2C[C@@H]2NCC2(CNCc3cnc[nH]3)CC2)cc1 [Example 12] | 50 to 100 | – | – |
| Clc1ccc2nc(C3(CN[C@H]4CC4c4ccccc4)CC3)oc2c1 (stereo partly shown) [Example 46] | ≤ 50 | – | – |
| Clc1ccc2oc(C3(CN[C@H]4C[C@@H]4c4ccccc4)CC3)nc2c1 [Example 47] | 50 to 100 | – | – |
| N#Cc1ccc(CNC2(CN[C@H]3CC3c3ccccc3)CCC2)cc1 (stereo partly shown) [Example 48] | ≤ 50 | – | – |
| O=C(O)c1ccc2c(c1)CN(CC1(CN[C@H]3CC3c3ccccc3)CC1)CC2 (stereo partly shown) [Example 53] | – | 500 to 1000 | 90 to 100 |
| FC(F)(F)c1ccc2c(c1)CN(CC1(CN[C@H]3CC3c3ccccc3)CC1)C2 (stereo partly shown) [Example 55] | – | 100 to 500 | 70 to 90 |
| O=C(O)c1ccc(C2CCN(CC3(CN[C@H]4CC4c4ccccc4)CC3)CC2)cc1 (stereo partly shown) [Example 56] | – | 500 to 1000 | 50 to 70 |
| c1ccc(C2C[C@@H]2NCC2(CN3CCCCc4ccccc43)CC2)cc1 (stereo partly shown) [Example 60] | – | 500 to 1000 | 50 to 70 |
| Fc1ccc(-c2nc(C3(CN[C@H]4CC4c4ccccc4)CC3)no2)cc1 (stereo partly shown) [Example 63] | ≤ 50 | – | – |
| O=C(O)C1CCC(c2nc(C3(CN[C@H]4CC4c4ccccc4)CC3)no2)CC1 (stereo partly shown) [Example 67] | – | 100 to 500 | 50 to 70 |
| c1ccc(C2C[C@@H]2NCC2(c3noc4ccccc34)CC2)cc1 (stereo partly shown) [Example 71] | ≤ 50 | – | – |
| c1ccc(C2C[C@@H]2NCC2(c3noc4ccccc34)CCC2)cc1 (stereo partly shown) [Example 72] | ≤ 50 | – | – |
| c1ccc(C2C[C@@H]2NCC2(c3nc4ccccc4o3)CC2)cc1 (stereo partly shown) [Example 76] | – | 100 to 500 | 50 to 70 |
| O=C(O)c1ccc(NCC2(CN[C@H]3C[C@@H]3c3ccccc3)CCC2)nc1 [Example 84] | 100 to 500 | – | – |

| SMILES | IC50 [1] [nM] | IC50 [2] [nM] | Emax [2] [%] |
| --- | --- | --- | --- |
| FC1CC(CN[C@H]2CC2c2ccccc2)(c2cccnc2)C1 (stereo partly shown) [Example 85] | ≤ 50 | – | – |
| COc1ccccc1-c1nc(C2(CN[C@H]3CC3c3ccccc3)CCC2)no1 (stereo partly shown) [Example 90] | ≤ 50 | – | – |
| N#Cc1ccccc1-c1nc(C2(CN[C@H]3CC3c3ccccc3)CCC2)no1 (stereo partly shown) [Example 91] | ≤ 50 | – | – |
| N#Cc1cccc(-c2nc(C3(CN[C@H]4CC4c4ccccc4)CCC3)no2)c1 (stereo partly shown) [Example 92] | ≤ 50 | – | – |
| FC1(F)Oc2ccc(-c3nc(C4(CN[C@H]5CC5c5ccccc5)CCC4)no3)cc2O1 (stereo partly shown) [Example 93] | ≤ 50 | – | – |
| COc1ccc2nc(-c3nc(C4(CN[C@H]5CC5c5ccccc5)CCC4)no3)sc2c1 (stereo partly shown) [Example 94] | ≤ 50 | – | – |
| Clc1ccc(-n2cc(C3(CN[C@H]4CC4c4ccccc4)CC3)nn2)cc1 (stereo partly shown) [Example 96] | – | 500 to 1000 | 50 to 70 |
| N#Cc1ccc(C(=O)NC2(CN[C@H]3CC3c3ccccc3)CCC2)cc1 (stereo partly shown) [Example 97] | ≤ 50 | – | – |
| CC1CCN(CC2(CN[C@H]3CC3c3ccccc3)CC2)C1 (stereo partly shown) [Example 98] | – | 100 to 500 | 50 to 70 |
| O=C(O)c1ccc(N2CCC(c3nc(C4(CN[C@H]5CC5c5ccccc5)CC4)no3)CC2)cn1 (stereo partly shown) [Example 104] | ≤ 50 | – | – |
| CC(=O)N1CCC(c2nc(C3(CN[C@H]4CC4c4ccccc4)CC3)no2)CC1 (stereo partly shown) [Example 105] | – | 100 to 500 | 70 to 90 |
| CC(=O)N1CCC(c2nc(C3(CN[C@H]4C[C@@H]4c4ccccc4)CC3)no2)CC1 [Example 105] | 50 to 100 | – | – |
| CN(C)[C@H]1CC[C@H](c2nc(C3(CN[C@H]4C[C@@H]4c4ccccc4)CC3)no2)CC1 [Example 108] | 100 to 500 | – | – |
| CC1(C)CCN(CC2(CN[C@H]3CC3c3ccccc3)CC2)C1 (stereo partly shown) [Example 202] | – | 100 to 500 | 70 to 90 |
| c1ccc(C2C[C@@H]2NCC2(CN3CCC3)CC2)cc1 (stereo partly shown) [Example 211] | – | 100 to 500 | 50 to 70 |
| C[C@H]1CCCN1CC1(CN[C@H]2CC2c2ccccc2)CC1 (stereo partly shown) [Example 212] | – | 100 to 500 | 50 to 70 |

More lines, main results first:

| IC50 [1] [nM] | IC50 [2] [nM] | SMILES | Emax [2] [%] |
| --- | --- | --- | --- |
| 50 to 100 | – | CC(C)(C)n1nnc(C2(CN[C@H]3C[C@@H]3c3ccccc3)CC2)n1 [Example 3] | – |
| 50 to 100 | – | CN(C)CC1(CN[C@H]2C[C@@H]2c2ccccc2)CC1 [Example 5] | – |
| ≤ 50 | – | c1ccc(C2C[C@@H]2NCC2(CNCc3ccc[nH]3)CC2)cc1 (stereo partly shown) [Example 11] | – |
| ≤ 50 | – | c1ccc(C2C[C@@H]2NCC2(CNCC3CCNC3)CC2)cc1 (stereo partly shown) [Example 13] | – |
| 100 to 500 | – | CCn1ncnc1CNCC1(CN[C@H]2C[C@@H]2c2ccccc2)CC1 [Example 14] | – |
| 50 to 100 | – | FC(F)(F)c1ccc(CNCC2(CN[C@H]3C[C@@H]3c3ccccc3)CC2)cn1 [Example 15] | – |
| 100 to 500 | – | c1ccc([C@H]2C[C@@H]2NCC2(CNCc3nccs3)CC2)cc1 [Example 16] | – |
| 50 to 100 | – | c1ccc([C@H]2C[C@@H]2NCC2(CNCc3cnc4n3CCC4)CC2)cc1 [Example 17] | – |
| – | 100 to 500 | Clc1ccc2oc(C3(CN[C@H]4CC4c4ccccc4)CC3)nc2c1 (stereo partly shown) [Example 47] | 50 to 70 |
| – | 500 to 1000 | c1ccc(C2C[C@@H]2NCC2(CN3CCc4ccncc4C3)CC2)cc1 (stereo partly shown) [Example 49] | 90 to 100 |
| – | 100 to 500 | FC(F)(F)c1ccc2c(c1)CN(CC1(CN[C@H]3CC3c3ccccc3)CC1)CC2 (stereo partly shown) [Example 51] | 70 to 90 |
| – | 500 to 1000 | O=C(O)C1CCN(CC2(CN[C@H]3CC3c3ccccc3)CC2)CC1 (stereo partly shown) [Example 54] | 50 to 70 |
| – | 100 to 500 | c1ccc(C2C[C@@H]2NCC2(CN3CCc4ccccc4CC3)CC2)cc1 (stereo partly shown) [Example 58] | 70 to 90 |
| – | 500 to 1000 | c1ccc(C2C[C@@H]2NCC2(CN3Cc4ccncc4C3)CC2)cc1 (stereo partly shown) [Example 61] | 50 to 70 |
| 50 to 100 | – | c1ccc([C@H]2C[C@@H]2NCC2(c3nc4ccccc4o3)CC2)cc1 [Example 76] | – |
| – | ≤ 100 | c1ccc(C2C[C@@H]2NCC2(CN3CCCC3)CC2)cc1 (stereo partly shown) [Example 77] | 70 to 90 |

| IC50 [1] [nM] | IC50 [2] [nM] | SMILES | Emax [2] [%] |
| --- | --- | --- | --- |
| – | 100 to 500 | FC(F)(F)C1CCN(CC2(CN[C@H]3CC3c3ccccc3)CC2)CC1 (stereo partly shown) [Example 80] | 50 to 70 |
| – | ≤ 100 | N#CC1CCN(CC2(CN[C@H]3CC3c3ccccc3)CC2)CC1 (stereo partly shown) [Example 81] | 50 to 70 |
| – | 100 to 500 | O=C(O)c1ccc(CN2CCC(c3nc(C4(CN[C@H]5CC5c5ccccc5)CC4)no3)CC2)cc1 (stereo partly shown) [Example 82] | 50 to 70 |
| ≤ 50 | – | OC1CC(CN[C@H]2CC2c2ccccc2)(c2cccnc2)C1 (stereo partly shown) [Example 86] | – |
| 50 to 100 | – | CC1CCN(CC2(CN[C@H]3C[C@@H]3c3ccccc3)CC2)C1 (stereo partly shown) [Example 98] | – |
| 100 to 500 | – | O=C(O)c1ccc2c(c1)CN(CC1(CN[C@H]3C[C@@H]3c3ccccc3)CC1)C2 [Example 99] | – |
| – | 500 to 1000 | O=C(O)c1ccc2c(c1)CCN(CC1(CN[C@H]3CC3c3ccccc3)CC1)C2 (stereo partly shown) [Example 101] | 50 to 70 |
| 100 to 500 | – | O=C(O)c1ccc(-c2nc(C3(CN[C@H]4CC4c4ccccc4)CC3)no2)cn1 (stereo partly shown) [Example 102] | – |
| – | 500 to 1000 | O=C(O)c1ccc(N2CCC(c3nc(C4(CN[C@H]5CC5c5ccccc5)CC4)no3)CC2)cc1 (stereo partly shown) [Example 103] | 50 to 70 |
| 100 to 500 | – | O=C(O)c1ccc(N2CCC(c3nc(C4(CN[C@H]5C[C@@H]5c5ccccc5)CC4)no3)CC2)cc1 [Example 103] | – |
| – | 500 to 1000 | CS(=O)(=O)n1cc2c(n1)CN(CC1(CN[C@H]3CC3c3ccccc3)CC1)C2 (stereo partly shown) [Example 106] | 50 to 70 |
| 100 to 500 | – | CS(=O)(=O)n1cc2c(n1)CN(CC1(CN[C@H]3C[C@@H]3c3ccccc3)CC1)C2 [Example 106] | – |
| 100 to 500 | – | O=C(O)c1ccc(C(=O)N2CCC(c3nc(C4(CN[C@H]5C[C@@H]5c5ccccc5)CC4)no3)CC2)cc1 [Example 107] | – |
| – | 500 to 1000 | CN(C)[C@H]1CC[C@H](c2nc(C3(CN[C@H]4CC4c4ccccc4)CC3)no2)CC1 (stereo partly shown) [Example 108] | 70 to 90 |
| – | 100 to 500 | CN1CCC(c2nc(C3(CN[C@H]4CC4c4ccccc4)CC3)no2)CC1=O (stereo partly shown) [Example 218] | 70 to 90 |

Source: patent US11433053B2, “LSD1 inhibitor and preparation method and application thereof” (CSPC ZHONGQI PHARMACEUTICAL TECHNOLOGY (SHIJIAZHUANG) CO., …, priority 2017, dated 2022)
